The values that follow come from PMC10687071 (The Journal of Biological Chemistry, 2023).

In assay [1] the target is T1, ΔPAS mutant EAG1 channels (deletion of PAS domain residues 2 to 130) (Mus musculus, UniProt Q60603).
T1 construct: expressed in transfected cells; host or cells: Xenopus laevis oocytes injected with cRNA
T1 sequence (Q60603 with tags, fused parts or gaps): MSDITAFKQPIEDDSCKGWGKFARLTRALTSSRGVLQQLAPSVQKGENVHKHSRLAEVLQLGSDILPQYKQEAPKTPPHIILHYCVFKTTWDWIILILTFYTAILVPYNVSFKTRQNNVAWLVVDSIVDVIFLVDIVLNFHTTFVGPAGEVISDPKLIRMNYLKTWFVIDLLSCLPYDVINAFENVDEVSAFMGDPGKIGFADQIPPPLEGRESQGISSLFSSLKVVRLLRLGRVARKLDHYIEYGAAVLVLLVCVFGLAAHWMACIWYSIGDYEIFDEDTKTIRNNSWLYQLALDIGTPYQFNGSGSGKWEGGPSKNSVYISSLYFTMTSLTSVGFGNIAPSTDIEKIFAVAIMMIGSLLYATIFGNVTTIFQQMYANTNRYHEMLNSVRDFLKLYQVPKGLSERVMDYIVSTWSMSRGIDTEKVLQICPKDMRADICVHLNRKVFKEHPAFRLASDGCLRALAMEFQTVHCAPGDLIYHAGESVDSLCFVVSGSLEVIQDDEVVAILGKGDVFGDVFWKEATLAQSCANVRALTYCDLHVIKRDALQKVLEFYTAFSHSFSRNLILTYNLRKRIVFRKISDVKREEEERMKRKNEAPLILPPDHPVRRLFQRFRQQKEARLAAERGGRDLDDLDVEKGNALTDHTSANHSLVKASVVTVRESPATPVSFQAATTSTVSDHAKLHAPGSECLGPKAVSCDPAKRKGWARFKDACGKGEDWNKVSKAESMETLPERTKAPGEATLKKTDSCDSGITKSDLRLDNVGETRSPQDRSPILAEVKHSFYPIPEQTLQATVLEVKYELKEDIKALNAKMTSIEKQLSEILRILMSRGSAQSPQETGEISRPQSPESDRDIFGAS
As to the kind of experiment: TEVC recording, imipramine inhibition, ΔPAS mutant. It is filed as cell-based. Conditions: ΔPAS mutant EAG1 channel, +50 mV. An excerpt:
(§1) The cDNA encoding wild-type (WT) mouse EAG1 channels in pGH19 vector was kindly provided by G. Robertson (University of Wisconsin-Madison, Madison, WI). The mutant ΔPAS EAG1 channel in pGH19 with the deletion of the PAS domain residues 2 to 130 was generated by Bio Basic Inc and verified by DNA sequencing (Genewiz). Mutant EAG1 channels with single amino acid substitutions were generated by Genewiz and verified by DNA sequencing. cRNA was transcribed using the T7 mMessage mMachine kit (Thermo Fisher Scientific). Defolliculated Xenopus laevis oocytes were purchased from Ecocyte Bioscience or Xenopus1 and injected with the cRNA using a Nanoinject II oocyte injector (Drummond).
(§2) For EAG1 current recordings, oocytes were placed into a handmade chamber containing a bath solution for the current recording. The currents were recorded using a TEVC technique with OC-725C amplifier (Warner Instruments) and pClamp11 software (Molecular Devices). The signals were digitized using Digidata 1550 (Molecular Devices). Patch pipettes were pulled from borosilicate glass and had resistances of 0.7 to 1.5 MΩ. The recording (bath) solution contained 96 mM NaCl, 4 mM KCl, 0.1 mM CaCl2, 1.8 mM MgCl2, and 5 mM HEPES, pH 7.5. The pipette solution contained 3 M KCl. […]

For assay [2], the target named is T2, Y71G mutant EAG1 channels (Mus musculus, UniProt Q60603, Y71G).
T2 construct: expressed in transfected cells; host or cells: Xenopus laevis oocytes injected with cRNA
T2 sequence (Q60603 1-989 Y71G): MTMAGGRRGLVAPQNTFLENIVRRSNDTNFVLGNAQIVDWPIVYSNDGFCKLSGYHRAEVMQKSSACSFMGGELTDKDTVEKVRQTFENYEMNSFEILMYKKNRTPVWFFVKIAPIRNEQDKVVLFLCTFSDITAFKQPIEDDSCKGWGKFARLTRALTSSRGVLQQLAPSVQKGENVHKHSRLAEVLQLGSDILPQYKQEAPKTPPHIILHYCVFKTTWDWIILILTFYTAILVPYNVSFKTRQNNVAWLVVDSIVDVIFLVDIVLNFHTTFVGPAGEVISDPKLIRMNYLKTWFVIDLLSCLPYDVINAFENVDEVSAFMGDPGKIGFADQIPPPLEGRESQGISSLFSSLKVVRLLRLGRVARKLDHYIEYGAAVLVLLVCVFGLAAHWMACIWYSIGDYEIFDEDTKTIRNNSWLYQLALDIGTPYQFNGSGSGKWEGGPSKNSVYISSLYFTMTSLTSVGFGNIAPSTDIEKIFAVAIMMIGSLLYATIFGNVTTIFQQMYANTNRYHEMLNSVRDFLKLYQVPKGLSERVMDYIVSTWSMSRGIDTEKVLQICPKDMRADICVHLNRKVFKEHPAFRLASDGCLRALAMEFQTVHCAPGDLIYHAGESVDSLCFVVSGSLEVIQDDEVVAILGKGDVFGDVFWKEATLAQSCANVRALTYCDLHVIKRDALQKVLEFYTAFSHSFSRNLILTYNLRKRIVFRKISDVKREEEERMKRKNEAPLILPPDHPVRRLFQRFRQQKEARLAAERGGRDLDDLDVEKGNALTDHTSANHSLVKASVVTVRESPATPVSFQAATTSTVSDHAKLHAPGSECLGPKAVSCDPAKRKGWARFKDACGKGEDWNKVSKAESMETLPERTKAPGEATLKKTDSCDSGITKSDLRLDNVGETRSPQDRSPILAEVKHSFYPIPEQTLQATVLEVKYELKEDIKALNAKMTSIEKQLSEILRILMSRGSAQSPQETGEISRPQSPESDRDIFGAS
As to the kind of experiment: TEVC recording, imipramine inhibition, Y71G mutant. It is filed as cell-based. Conditions: Y71G mutant EAG1 channel, +50 mV.
From the text: as §1, §2

The next assay relates to EAG1 channels. Conditions: HEK293, whole-cell configuration; read-out: IC50 for EAG1 currents recorded from HEK293 in the whole-cell configuration; cited from earlier work.

Structures are written as SMILES.

Consider `CN(C)CCCN1c2ccccc2CCc2ccccc21` [imipramine], for which the IC50 was 109 ± 12.6 µM in assay [1], 26.7 ± 3.2 µM in assay [2] and about 2 µM with EAG1 channels.
